The values that follow come from patent US4093648A, “Therapeutically active benzoic acid derivatives and a process for preparing them” (Recordati S.A. Chemical and Pharmaceutical Company, priority 1975, dated 1978).

A word on the LD50: it is the dose at which mortality reaches 50%.

In series [1] the test system is cutaneous passive anaphylaxis. Put plainly: cutaneous passive anaphylaxis on the rat (antianaphylactic activity vs. sodium chromoglycate standard). It counts as in vivo. To be noted: for Compound activity / Standard activity: ratio to chromoglycate (standard), cutaneous passive anaphylaxis, rat. The source says: The compounds of formula I and their pharmacologically compatible salts show antianaphylactic activity (which is rather remarkable for some of them) that may be successfully employed to prepare pharmaceutical formulations for human use against the allergic asthma and alimentary allergies. In order to evaluate the antianaphylactic activity, we have performed some comparison tests with sodium chromoglycate that is, at the present time, the most known and the most used antiallergic agent.
(§1) The evaluation of biological data has been carried out by the most accepted test of the cutaneous passive anaphylaxis on the rat. We have followed the method described by J. Mota on Life Science 12,917 (1963) that was appropriately modified. The LD50 determination was carried out with the common method, by administering intraperitoneally the compound to rats. The chromoglycate was used as a standard. In the first column, are listed the LD50 values (mg/Kg), in the second the ratios [formula] in the last column the ratios [formula]

Series [2] is described as follows: LD50 determination, intraperitoneal, rats. The note with it: rat, in vivo, ip. The procedure: as §1
The test system of series [3] is cutaneous passive anaphylaxis. The note with it: qualitative statement, no data; cited from earlier work.

For the compound `CCC(=O)c1cccc(C(=O)Nc2cccc(Cl)c2)c1O` [Example 4, 2-Hydroxy-3-propionyl (m-chlorophenyl) benzamide], the “Compound activity / Standard activity” value in series [1] is listed as 1.12. In addition, in series [2] (intraperitoneally to rats), the LD50 came to 2700 mg/kg.

Consider `CCC(=O)c1cccc(C(=O)Nc2ccccc2Cl)c1O` [Example 3, 2-Hydroxy-3-propionyl (o-chlorophenyl) benzamide], for which the “Compound activity / Standard activity” value in series [1] stood at 1.19. This compound also registered an LD50 in series [2] (intraperitoneally to rats) of 3000 mg/kg.

In the case of `CCC(=O)c1cccc(C(=O)O)c1OCCN(CC)CC` [Example 7, 2(β-diethylamino)ethoxy-3-propionylbenzoic Acid], in series [1] (qualitative statement), the antianaphylactic activity entry was “most active product of this series”. The “Compound activity / Standard activity” value in series [1] was determined as 1.22. The LD50 in series [2] was determined as 3000 mg/kg.

Take `CCOc1ccc(NC(=O)c2cccc(C(=O)CC)c2O)cc1` [Example 2, 2-Hydroxy-3-propionyl (4-ethoxyphenyl)benzamide]: the “Compound activity / Standard activity” value in series [1] stood at 1.20. This compound also returned an LD50 in series [2] (intraperitoneally to rats) of 3000 mg/kg.

Regarding `O=C(O)c1cc(=O)c2c(OCC(O)COc3cccc4oc(C(=O)O)cc(=O)c34)cccc2o1` [chromoglycate, sodium chromoglycate], in series [3], the “activity when administered per os (chromoglycate)” value was “inactive”.
